Here are results for two compounds from patent US9289411B2, “Anti-HCV agent” (NATIONAL UNIVERSITY CORPORATION OKAYAMA UNIVERSITY, priority 2011, dated 2016).

By EC50 is commonly meant the concentration needed to bring the measured effect to its halfway point. Usually CC50 stands for the concentration at which the toxic effect on the cells reaches its halfway point. Read a high CC50 as lower toxicity to the cells.

The structures appear in SMILES notation.

Data set [1] relates to HCV-RNA replication in OR6 cells (HCV-O strain, HuH-7-derived). As to the kind of experiment: microbe, parasite or virus in culture. The following applies: for EC50: Hepatitis C virus, OR6, 72 h; for SI (CC50/EC50): OR6 cells. An excerpt: (§1) Assay systems using OR6 cells (HCV-O strain), 1B-4R cells (HCV-1B-4 strain), and AH1R cells (HCV-AH1R strain) as HuH-7 cell-derived full-length HCV-RNA-replicating cells, and ORL8 cells (HCV-O strain), ORL11 cells (HCV-O strain), 1B-4RL cells (HCV-1B-4 strain), and KAH5RL cells (HCV-KAH5 strain) as Li23 cell-derived full-length HCV-RNA-replicating cells were used for the quantitative analysis of anti-HCV activity and evaluation of a cytotoxic effect in the present invention. The three cell lines, i.e., the 1B-4R cells, the 1B-4RL cells, and the KAH5RL cells have been disclosed in WO 2010/026965 A1. The AH1R cells may be produced with reference to Mori K et al., BBRC, 371:104-109, 2008 and WO 2010/026965 A1. In addition, all the HCV strains belong to genotype 1b.
(§2) As necessary, an increase or decrease in expression level of an HCV protein (core protein) was examined by a Western blot method.
(§3) In the measurement of the renilla luciferase activity and the measurement by the WST-1 method, experiments were performed in three wells independent of each other, and their means and standard deviation were calculated.
OR6 cells, which had been cultured in general medium for subculture, were plated onto a 24-well plate (2×10^4 cells in 1 mL of medium for […] cell line per well) and cultured. After 24 hours, N-89 was added so as to achieve concentrations of 20 μM, a 2-fold dilution series from 20 μM (10, 5, 2.5, 1.3, 0.63, and 0.31 μM), and 0, or N-251 was added so as to achieve concentrations of 10 μM, a 2-fold dilution series from 10 μM (5, 2.5, 1.3, 0.63, 0.31, and 0.16 μM), and 0. The renilla luciferase activities were measured 72 hours after the culture. N-89 and N-251 were diluted with DMSO.
(§4) The anti-HCV activity of artemisinin was examined using OR6 cells and ORL8 cells and the EC50 values were calculated. An experimental scale and schedule are the same as those in Example 1.
(§5) Artemisinin was added so as to achieve concentrations of 100 μM, a 2-fold dilution series from 100 μM (50, 25, 13, 6.3, 3.1, and 1.6 μM), and 0. The luciferase activities were measured 72 hours after the culture.

Data set [2] relates to HCV-RNA replication in ORL8 cells (HCV-O strain, Li23-derived). As to the kind of experiment: microbe, parasite or virus in culture. The conditions noted are these: for EC50: Hepatitis C virus, ORL8, 72 h; for SI (CC50/EC50) / suppression of the level of HCV-RNA replication: ORL8 cells; for suppression of the level of HCV-RNA replication: 1 μM.
Excerpt: as §1, §2, §3
The anti-HCV activities of N-89 and N-251 were examined using ORL8 cells and the EC50 values were calculated. An experimental scale and schedule are the same as those in Example 1.
N-89 and N-251 were added so as to achieve concentrations of 5 μM, a 2-fold dilution series from 5 μM (2.5, 1.3, 0.63, 0.31, 0.16, and 0.08 μM), and 0. The luciferase activities were measured 72 hours after the culture.
as §4, §5

The next data set concerns ORL8 cells. As to the kind of experiment: Cytotoxic effect, WST-1 cell proliferation assay in ORL8 cells. The following applies: ORL8 cells.
Excerpt: as §1, §3
The cytotoxic effects of N-89 and N-251 were examined using ORL8 cells and the CC50 values were calculated. An experimental scale and schedule are the same as those in Example 1.
N-89 and N-251 were added so as to achieve concentrations of 5 μM, a 2-fold dilution series from 5 μM (2.5, 1.3, 0.63, 0.31, 0.16, and 0.08 μM), and 0. The WST-1 cell proliferation assay was performed 72 hours after the culture.
The cytotoxic effect of artemisinin was examined using OR6 and ORL8 cells and the CC50 values were calculated. An experimental scale and schedule are the same as those in Example 1. Artemisinin was added so as to achieve concentrations of 400 μM, a 2-fold dilution series from 400 μM (200, 100, 50, 25, and 13 μM), and 0. The WST-1 cell proliferation assay was performed 72 hours after the culture.

In data set [3] the test system is HCV-RNA replication in ORL11 cells (HCV-O strain, Li23-derived). As to the kind of experiment: microbe, parasite or virus in culture. Type of data set: cell-based, HCV genotype 1b. The conditions noted are these: for EC50: Hepatitis C virus, 72 hours, renilla luciferase activity.
Protocol: N-89 was added so as to achieve concentrations of 500 nM, a 2-fold dilution series from 500 nM (250, 125, 63, 31, 16, and 8 nM), and 0. The luciferase activities were measured 72 hours after the culture.
N-251 was added so as to achieve concentrations of 1 μM, a 2-fold dilution series from 1 μM (500, 250, 125, 63, 31, and 16 nM), and 0. The luciferase activities were measured 72 hours after the culture.
For data set [4], the system named is HCV core protein in OR6 cells. As to the kind of experiment: Western blot analysis of HCV core protein expression in OR6 cells. Type of data set: cell-based, HCV genotype 1b. The following applies: 72 hours, N-89 0.31-20 μM, N-251 0.16-10 μM. As for the experimental part: N-89 and N-251 were diluted with DMSO. After 72 hours, sampling was performed with 100 μL of 2×SDS buffer. 10 μL of a sample were applied to SDS-PAGE electrophoresis and subjected to Western blot analysis using an anti-HCV core antibody and an anti-β-actin antibody according to a conventional method. For the detection of β-actin, a sample diluted 10-fold with 2×SDS buffer in advance was used because the expression amount of β-actin was high.
Background: A western blot detects proteins with antibodies after separation by electrophoresis.

Data set [5] deals with HCV core protein in ORL8 cells. The data set can be described thus: Western blot analysis of HCV core protein expression in ORL8 cells. Type of data set: cell-based, HCV genotype 1b. The following applies: 72 hours, 0.078-5 μM. As for the experimental part:
N-89 and N-251 were diluted with DMSO. Sampling was performed with 100 μL of 2×SDS buffer 72 hours after the culture. 10 μL of a sample were applied to SDS-PAGE electrophoresis and subjected to Western blot analysis using an anti-HCV core antibody and an anti-β-actin antibody according to a conventional method. It should be noted that for the detection of β-actin, a sample diluted 10-fold with 2×SDS buffer in advance was used.

Data set [6] concerns HCV-RNA replication in ORL8 cells. As to the kind of experiment: Effect of antioxidant vitamin E on anti-HCV activity in ORL8 cells (luciferase activity). It is filed as cell-based, HCV genotype 1b. The following applies: for luciferase activity, compound in combination with vitamin E: compound 0.5 μM + vitamin E 10 μM; for luciferase activity, compound in combination with vitamin E / luciferase activity (HCV activity), compound alone: 72 hours; for luciferase activity (HCV activity), compound alone: compound 0.5 μM alone; for canceling of the anti-HCV activity by vitamin E: vitamin E 10 μM. As for the experimental part: The effect of addition of vitamin E on the anti-HCV activity of N-89 was examined using ORL8 cells. An experimental scale and schedule are the same as those in Example 1.
N-89 and vitamin E were simultaneously added so that the concentrations of N-89 and vitamin E were set to 0.5 μM and 10 μM, respectively. The luciferase activity was measured 72 hours after the culture.
The effect of addition of vitamin E on the anti-HCV activity of N-251 was examined using ORL8 cells. An experimental scale and schedule are the same as those in Example 1.
N-251 and vitamin E were simultaneously added so that the concentrations of N-251 and vitamin E were set to 0.5 μM and 10 μM, respectively. The luciferase activity was measured 72 hours after the culture.
The effect of addition of vitamin E on the anti-HCV activity of artemisinin was examined using ORL8 cells. An experimental scale and schedule are the same as those in Example 1.
Artemisinin and vitamin E were simultaneously added so that the concentrations of artemisinin and vitamin E were set to 100 μM and 10 μM, respectively. The luciferase activity was measured 72 hours after the culture.

Take `C1CCCCCC2(CCCCC1)OOCCCOO2` [N-89, 1,2,6,7-tetraoxaspiro[7,11]nonadecane]: in data set [1], the EC50 was 660 nM and the “SI (CC50/EC50)” value is given as 14. Besides, in data set [2], the EC50 was determined as 89 nM, the “SI (CC50/EC50)” value is 26 and the “suppression of the level of HCV-RNA replication” value was 99%. The “cytotoxicity at 1 μM (WST-1 assay)” value in the data set on ORL8 cells is on record as “not exhibiting cytotoxicity”. For the same compound, in data set [3], the “SI (CC50/EC50)” value is recorded as 12 and it took 45 nM to reach a half-maximal effect (EC50). In addition, the “level of the HCV core protein (Western blot)” value (“level of the HCV core protein” for short) in data set [4] is “reduced depending on the concentrations”. In addition, the “level of the HCV core protein” value in data set [5] is “reduced depending on the concentrations”. Further, in data set [6], the “luciferase activity, compound in combination with vitamin E” value was found to be 245%; the “luciferase activity (HCV activity), compound alone” value is reported as 27%; the “canceling of the anti-HCV activity by vitamin E” value is recorded as “completely canceled”.

Turning to `OCCCCCCC1COOC2(CCCCCCCCCCC2)OOC1` [N-251, 6-(1,2,6,7-tetraoxaspiro[7,11]nonadec-4-yl)], in data set [1], the EC50 was found to be 690 nM and the “SI (CC50/EC50)” value is on record as 4.4. In data set [2], the EC50 stood at 100 nM, the “SI (CC50/EC50)” value turned out to be 13 and the “suppression of the level of HCV-RNA replication” value came to 99%. In addition, in the data set with ORL8 cells, the “cytotoxicity at 1 μM (WST-1 assay)” value is listed as “not exhibiting cytotoxicity”. This compound also yielded a CC50 in the data set with ORL8 cells (72 hours, WST-1) of 1300 nM. For the same compound, in data set [3], the “SI (CC50/EC50)” value amounted to 19 and the EC50 turned out to be 59 nM. The “level of the HCV core protein” value in data set [4] was “reduced depending on the concentrations”. Moreover, the “level of the HCV core protein” value in data set [5] is listed as “reduced depending on the concentrations”. Moreover, in data set [6], the “luciferase activity, compound in combination with vitamin E” value is on record as 215%; the “luciferase activity (HCV activity), compound alone” value is recorded as 33%; the “canceling of the anti-HCV activity by vitamin E” value is recorded as “completely canceled”.
